PubChem BioAssay (NCI)
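Results reflect a 48-hour exposure of cells in 96-well plates to compound at five concentrations. Here, GI50 denotes the concentration required for 50% inhibition of growth. TGI: concentration producing complete growth inhibition.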

Columns and labels:
Assay in all cases: NCI anticancer screen, dose series, 48 h
[1] = system: MOLT-4 leukemia
[2] = system: NCI-H460 lung
[3] = system: SNB-19 CNS
[4] = system: SF-295 CNS
[5] = system: HCC-2998 colon
[6] = system: HT29 colon
[7] = system: A498 renal
[8] = system: MDA-MB-435
[9] = system: M14 melanoma
[10] = system: HCT-116 colon
[11] = system: OVCAR-3 ovarian
[12] = system: NCI-H226 lung
[13] = system: MALME-3M melanoma
[14] = system: HL-60(TB) leukemia
[15] = system: K-562 leukemia
[16] = system: CAKI-1 renal
[17] = system: DU-145 prostate
[18] = system: COLO 205 colon
[19] = system: SK-MEL-28 melanoma
[20] = system: OVCAR-5 ovarian
[21] = system: UACC-62 melanoma
[22] = system: OVCAR-8 ovarian
[23] = system: HOP-92 NSCLC
[24] = system: EKVX NSCLC
[25] = system: SK-MEL-2 melanoma
[26] = system: NCI-H522 lung
[27] = system: ACHN renal
[28] = system: PC-3 prostate
[29] = system: OVCAR-4 ovarian
[30] = system: SF-539 CNS
[31] = system: MCF7 breast
[32] = system: HS 578T breast
[33] = system: UO-31 renal
[34] = system: NCI-H23 lung
[35] = system: TK-10 renal
[36] = system: BT-549 breast
[37] = system: SF-268 CNS
[38] = system: MDA-MB-231 breast
[39] = system: HOP-62 NSCLC
[40] = system: SK-OV-3 ovarian
[41] = system: SN12C renal
[42] = system: T-47D breast
[43] = system: SR leukemia
[44] = system: SNB-75 CNS
[45] = system: LOX IMVI melanoma
[46] = system: SK-MEL-5 melanoma
[47] = system: RXF 393 renal
[48] = system: A549 NSCLC
[49] = system: HCT-15 colon
[50] = system: NCI/ADR-RES ovarian
[51] = system: UACC-257 melanoma
[52] = system: IGROV1 ovarian
[53] = system: U251 CNS
[54] = system: MDA-MB-468 breast
[55] = system: CCRF-CEM leukemia
[56] = system: KM12 colon
[57] = system: RPMI-8226 leukemia
[58] = system: SW-620 colon
[59] = system: 786-0 renal

CN(C)c1ccnc(CNCCSC2(c3ccc(C(F)(F)F)cc3)c3ccccc3C=Cc3ccccc32)c1
GI50 [1]: 1.12 µM | TGI [1]: 5.41 µM | GI50 [2]: 1.09 µM | TGI [2]: 3.86 µM | GI50 [3]: 3.53 µM | TGI [3]: 17.3 µM | GI50 [4]: 1.6 µM | TGI [4]: 6.56 µM | GI50 [5]: 0.91 µM | TGI [5]: 2.63 µM | GI50 [6]: 1.79 µM | TGI [6]: 5.65 µM | GI50 [7]: 11.9 µM | TGI [7]: 27.2 µM | GI50 [8]: 0.605 µM | TGI [8]: 1.34 µM | GI50 [9]: 0.598 µM | TGI [9]: 2.69 µM | GI50 [10]: 0.611 µM | TGI [10]: 12.5 µM | GI50 [11]: 1.73 µM | TGI [11]: 5.93 µM | GI50 [12]: 5.45 µM | TGI [12]: 16.3 µM | GI50 [13]: 2.35 µM | TGI [13]: 6.51 µM | GI50 [14]: 1.2 µM | TGI [14]: 3.91 µM | GI50 [15]: 2.8 µM | TGI [15]: 14 µM | GI50 [16]: 4.37 µM | TGI [16]: 16.5 µM | GI50 [17]: 3.12 µM | TGI [17]: 10.8 µM | GI50 [18]: 0.927 µM | TGI [18]: 2.9 µM | GI50 [19]: 4.34 µM | TGI [19]: 9.09 µM | GI50 [20]: 2.74 µM | TGI [20]: 11.2 µM | GI50 [21]: 3.41 µM | TGI [21]: 8.81 µM | GI50 [22]: 1.18 µM | TGI [22]: 4.73 µM | GI50 [23]: 2.17 µM | TGI [23]: 10.2 µM | GI50 [24]: 1.77 µM | TGI [24]: 14.2 µM | GI50 [25]: 1.2 µM | TGI [25]: 3.72 µM | GI50 [26]: 0.771 µM | TGI [26]: 2.49 µM | GI50 [27]: 3.21 µM | TGI [27]: 14.6 µM | GI50 [28]: 1.49 µM | TGI [28]: 11.3 µM | GI50 [29]: 5.33 µM | TGI [29]: 16.3 µM | GI50 [30]: 1.12 µM | TGI [30]: 3.18 µM | GI50 [31]: 0.853 µM | TGI [31]: 4.19 µM | GI50 [32]: 1.57 µM | TGI [32]: 6.75 µM | GI50 [33]: 3.91 µM | TGI [33]: 16.2 µM | GI50 [34]: 2.8 µM | TGI [34]: 9.31 µM | GI50 [35]: 7.1 µM | TGI [35]: 21.3 µM | GI50 [36]: 3.19 µM | TGI [36]: 9.62 µM | GI50 [37]: 3.67 µM | TGI [37]: 16.6 µM | GI50 [38]: 1.11 µM | TGI [38]: 3.36 µM | GI50 [39]: 2.69 µM | TGI [39]: 13.9 µM | GI50 [40]: 4.38 µM | TGI [40]: 13.7 µM | GI50 [41]: 2.16 µM | TGI [41]: 8.08 µM | GI50 [42]: 4.63 µM | TGI [42]: 15.7 µM | GI50 [43]: 0.723 µM | TGI [43]: 4.15 µM | GI50 [44]: 1.76 µM | TGI [44]: 6.61 µM | GI50 [45]: 2.2 µM | TGI [45]: 6.16 µM | GI50 [46]: 1.96 µM | TGI [46]: 5.43 µM | GI50 [47]: 1.97 µM | TGI [47]: 7.54 µM | GI50 [48]: 1.35 µM | TGI [48]: 5.71 µM | GI50 [49]: 1.12 µM | TGI [49]: 6.62 µM | GI50 [50]: 2 µM | TGI [50]: 4.39 µM | GI50 [51]: 4.33 µM | TGI [51]: 11.2 µM | GI50 [52]: 2.58 µM | TGI [52]: 16 µM | GI50 [53]: 1.11 µM | TGI [53]: 4.03 µM | GI50 [54]: 0.74 µM | TGI [54]: 1.99 µM | GI50 [55]: 1.06 µM | TGI [55]: 13.4 µM | GI50 [56]: 1.41 µM | TGI [56]: 5.33 µM | GI50 [57]: 1.03 µM | TGI [57]: 4.41 µM | GI50 [58]: 1 µM | TGI [58]: 4.45 µM | GI50 [59]: 2.49 µM | TGI [59]: 7.12 µM
